This is an account of results in US10123993B2, “Cyclic ureas as inhibitors of rock” (BRISTOL-MYERS SQUIBB COMPANY, priority 2015, dated 2018).

Chain of ROCK2 (O75116 whole entry, species assumed): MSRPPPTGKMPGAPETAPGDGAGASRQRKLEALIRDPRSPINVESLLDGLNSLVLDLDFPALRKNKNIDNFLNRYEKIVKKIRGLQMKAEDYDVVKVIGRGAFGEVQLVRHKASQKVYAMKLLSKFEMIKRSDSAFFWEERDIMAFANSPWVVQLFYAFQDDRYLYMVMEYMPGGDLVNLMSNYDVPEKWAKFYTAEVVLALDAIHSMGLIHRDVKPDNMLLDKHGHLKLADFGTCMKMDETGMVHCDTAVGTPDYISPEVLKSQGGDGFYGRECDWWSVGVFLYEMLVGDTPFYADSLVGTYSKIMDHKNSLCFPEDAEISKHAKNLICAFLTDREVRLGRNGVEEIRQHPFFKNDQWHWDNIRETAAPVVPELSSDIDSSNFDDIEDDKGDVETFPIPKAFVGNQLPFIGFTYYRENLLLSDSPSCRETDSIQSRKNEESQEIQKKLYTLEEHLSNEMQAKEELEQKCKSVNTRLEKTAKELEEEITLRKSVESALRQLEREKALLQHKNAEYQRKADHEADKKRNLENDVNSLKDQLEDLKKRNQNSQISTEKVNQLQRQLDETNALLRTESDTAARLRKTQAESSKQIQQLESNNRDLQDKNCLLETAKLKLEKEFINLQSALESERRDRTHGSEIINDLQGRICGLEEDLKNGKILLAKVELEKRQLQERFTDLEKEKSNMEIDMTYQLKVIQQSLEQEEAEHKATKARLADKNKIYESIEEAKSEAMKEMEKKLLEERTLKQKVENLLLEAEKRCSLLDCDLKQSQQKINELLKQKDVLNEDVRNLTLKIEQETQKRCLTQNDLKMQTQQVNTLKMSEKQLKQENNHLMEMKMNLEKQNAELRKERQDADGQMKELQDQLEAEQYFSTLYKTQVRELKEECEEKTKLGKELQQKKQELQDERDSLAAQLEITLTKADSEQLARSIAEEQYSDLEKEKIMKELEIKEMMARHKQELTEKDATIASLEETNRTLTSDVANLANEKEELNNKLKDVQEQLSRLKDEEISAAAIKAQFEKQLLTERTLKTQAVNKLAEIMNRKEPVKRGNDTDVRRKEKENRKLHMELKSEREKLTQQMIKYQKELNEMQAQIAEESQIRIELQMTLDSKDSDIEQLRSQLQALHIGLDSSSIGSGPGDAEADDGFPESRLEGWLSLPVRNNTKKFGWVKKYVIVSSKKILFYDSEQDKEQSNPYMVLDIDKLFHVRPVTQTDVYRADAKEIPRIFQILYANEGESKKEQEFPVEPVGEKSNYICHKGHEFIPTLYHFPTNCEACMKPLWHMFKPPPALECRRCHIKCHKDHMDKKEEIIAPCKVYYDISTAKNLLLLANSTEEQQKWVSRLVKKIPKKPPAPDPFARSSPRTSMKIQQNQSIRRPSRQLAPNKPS

The experiment deals with ROCK2 (Homo sapiens, UniProt O75116). As to the kind of experiment: ROCK2 kinase inhibition assay (Caliper LABCHIP, FITC peptide substrate). The format is biochemical. The note with it: 5 μM ATP, 1.5 μM peptide substrate; value ranges. An outline of the steps:
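Rho kinase with 5 μM ATP and 1.5 μM FITC-AHA-AKRRRLSSLRA-OH peptide in HEPES pH 7.5, 20 mM MgCl2, 0.015% Brij-35, 4 mM DTT, DMSO <2%. EDTA stop; phospho and non-phospho peptide separated on LabChip. IC50 from dose-response fit.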
In general, IC50 refers to the point on the concentration scale where inhibition reaches its midpoint. A low value points to higher potency. The compound `COc1cc(CN2CCN(c3cc(F)c(-c4cn[nH]c4)cc3F)C2=O)ccc1F` [Example 449, 1-(2,5-difluoro-4-(1H-pyrazol-4-yl)phenyl)-3-(4-fluoro-3-methobenzyl)imidazolidin-2-one] showed an IC50 of 20.1 to 200 nM.
With `CNC(=O)C(c1cccc(OC)c1)N1CCN(c2ccc(-c3cn[nH]c3)cc2)C1=O` (single isomer, unassigned) [Example 291, 2-(3-(4-(1H-pyrazol-4-yl)phenyl)-2-oxoimidazolidin-1-yl)-2-(3-methoxyphenyl)-N-methylacetamide], the half-maximal inhibitory concentration (IC50) lay within 20.1 to 200 nM.
For the compound `O=C1N(Cc2ccccn2)CCN1c1ccc(-c2cn[nH]c2)cn1` [Example 243, 1-(5-(1H-pyrazol-4-yl)pyridin-2-yl)-3-(pyridin-2-ylmethyl)imidazolidin-2-one], the IC50 was in the range of 200 to 2000 nM.
Turning to `O=C1N(c2ccc(-c3cn[nH]c3)cc2)CCN1C(CO)c1ccccc1` (single isomer, unassigned) [Example 163, 1-(4-(1H-pyrazol-4-yl)phenyl)-3-(2-hydroxy-1-phenylethyl) imidazolidin-2-one], the half-maximal inhibitory concentration (IC50) is 2.1 to 20 nM.
`O=c1n(Cc2cccc(F)c2F)ccn1-c1ccc(-c2cn[nH]c2)cc1` [Example 406, 1-(4-(1H-pyrazol-4-yl)phenyl)-3-(2,3-difluorobenzyl)-1H-imidazol-2(3H)-one] had an IC50 of 20.1 to 200 nM.
Take `CCOC(=O)C1CN(Cc2ccccc2)C(=O)N1c1ccc(-c2cn[nH]c2)cc1` (stereo not drawn) [Example 29, Ethyl 3-(4-(1H-pyrazol-4-yl)phenyl)-1-benzyl-2-oxoimidazolidine-4-carboxylate]: the 50% inhibitory concentration (IC50) lay in the range of 20.1 to 200 nM.
Next, `COc1cccc(CN2C(=O)N(c3ccc(-c4cn[nH]c4)cc3)CC2C(C)(C)O)c1` (single isomer, unassigned; (-)) [Example 44, (−)-1-(4-(1H-Pyrazol-4-yl)phenyl)-4-(2-hydroxypropan-2-yl)-3-(3-methoxybenzyl)imidazolidin-2-one]: less than 2 nM; `COc1cccc(CN2CCN(c3ccc(-c4ccnc(N)n4)cc3)C2=O)c1` [Example 63, 1-(4-(2-Aminopyrimidin-4-yl)phenyl)-3-(3-methoxybenzyl)imidazolidin-2-one]: 20.1 to 200 nM.
As to `O=C1CN(c2ccc(-c3cn[nH]c3)cc2)C(=O)N1Cc1ccccc1` [Example 110, 1-(4-(1H-pyrazol-4-yl)phenyl)-3-benzyl-imidazolidine-2,4-dione], the IC50 lay within 20.1 to 200 nM.
For `COc1cc(Cn2ccn(-c3ccc(-c4cn[nH]c4)c(OC)n3)c2=O)ccc1F` [Example 477, 1-(4-fluoro-3-methoxybenzyl)-3-(6-methoxy-5-(1H-pyrazol-4-yl)pyridin-2-yl)-1H-imidazol-2(3H)-one], the IC50 was less than 2 nM.
In turn, `COc1nc(-n2ccn(Cc3cccc(OC(F)F)c3)c2=O)ccc1-c1cn[nH]c1` [Example 419, 1-(3-(difluoromethoxy)benzyl)-3-(6-methoxy-5-(1H-pyrazol-4-yl)pyridin-2-yl)-1H-imidazol-2(3H)-one] returned an IC50 of less than 2 nM.
Take `COc1cccc(CN2C(=O)N(c3ccc(-c4cn[nH]c4)cc3)C(=O)C2CO)c1` (stereo not drawn) [Example 121, 3-(4-(1H-Pyrazol-4-yl)phenyl)-5-(hydroxymethyl)-1-(3-methoxybenzyl)imidazolidine-2,4-dione]: the IC50 fell in the range of 200 to 2000 nM.
With `COc1cc(CN2CCN(c3ccc(-c4cn[nH]c4)c(F)c3)C2=O)ccc1F` [Example 434, 1-(4-fluoro-3-methoxybenzyl)-3-(3-fluoro-4-(1H-pyrazol-4-yl)phenyl)imidazolidin-2-one], the IC50 fell in the range of 2.1 to 20 nM.
Turning to `COc1cc(F)ccc1Cn1ccn(-c2ccc(-c3cn[nH]c3)cc2)c1=O` [Example 412, 1-(4-(1H-pyrazol-4-yl)phenyl)-3-(4-fluoro-2-methoxybenzyl)-1H-imidazol-2(3H)-one], the IC50 was 200 to 2000 nM.
Next, `COc1cc(CN2C(=O)N(c3ccc(-c4cn[nH]c4)cn3)CC2(C)C)ccc1F` [Example 450, 1-(5-(1H-pyrazol-4-yl)pyridin-2-yl)-3-(4-fluoro-3-methoxybenzyl)-4,4-dimethylimidazolidin-2-one]: 2.1 to 20 nM; `COc1cc(F)cc(Cn2ccn(-c3ccc(-c4cn[nH]c4)c(OC)n3)c2=O)c1` [Example 478, 1-(3-fluoro-5-methoxybenzyl)-3-(6-methoxy-5-(1H-pyrazol-4-yl)pyridin-2-yl)-1H-imidazol-2(3H)-one]: less than 2 nM.
Take `COc1ccc(F)c(Cn2ccn(-c3ccc(-c4cn[nH]c4)cc3)c2=O)c1` [Example 338, 1-(4-(1H-pyrazol-4-yl)phenyl)-3-(2-fluoro-5-methoxybenzyl)-1H-imidazol-2(3H)-one]: the IC50 fell in the range of 20.1 to 200 nM.
Next, `O=C1N(Cc2cccc(OCC3CC3)c2)CCN1c1ccc(-c2cn[nH]c2)nc1` [Example 441, 1-(6-(1H-pyrazol-4-yl)pyridin-3-yl)-3-(3-(cyclopropylmethoxy)benzyl)imidazolidin-2-one]: 200 to 2000 nM; `COc1cc(F)cc(C(C)N2CCN(c3ccc(-c4cn[nH]c4)c(OC)n3)C2=O)c1` (single isomer, unassigned) [Example 229, 1-(1-(3-fluoro-5-methoxyphenyl)ethyl)-3-(6-methoxy-5-(1H-pyrazol-4-yl)pyridin-2-yl)imidazolidin-2-one]: 2.1 to 20 nM.
In the case of `CCc1nc(-n2ccn(Cc3ccc(F)c(OC)c3)c2=O)ccc1-c1cn[nH]c1` [Example 171, 1-(6-ethyl-5-(1H-pyrazol-4-yl)pyridin-2-yl)-3-(4-fIuoro-3-methoxy-benzyl)-1H-imidazol-2(3H)-one] it was 20.1 to 200 nM.
Next, `COc1nc(-n2ccn(Cc3cccnc3)c2=O)ccc1-c1cn[nH]c1` [Example 417, 1-(6-methoxy-5-(1H-pyrazol-4-yl)pyridin-2-yl)-3-(pyridin-3-ylmethyl)-1H-imidazol-2(3H)-one]: 2.1 to 20 nM.
Compound `CC(c1ccccc1)n1ccn(-c2ccc(-c3cn[nH]c3)cc2)c1=O` (stereo not drawn) [Example 332, 1-(4-(1H-pyrazol-4-yl)phenyl)-3-(1-phenylethyl)-1H-imidazol-2(3H)-one] returned an IC50 of 20.1 to 200 nM.
Next, `COc1nc(-n2ccn(Cc3cccc(F)c3OC)c2=O)ccc1-c1cn[nH]c1` [Example 416, 1-(3-fluoro-2-methoxybenzyl)-3-(6-methoxy-5-(1H-pyrazol-4-yl)pyridin-2-yl)-1H-imidazol-2(3H)-one]: 2.1 to 20 nM; `CCc1nc(N2CCN(C(CO)c3cccc(OC)c3)C2=O)ccc1-c1cn[nH]c1` (single isomer, unassigned) [Example 158, 1-(6-ethyl-5-(1H-pyrazol-4-yl)pyridin-2-yl)-3-(2-hydroxy-1-(3-methoxy-phenyl)ethyl) imidazolidin-2-one]: 20.1 to 200 nM.
In the case of `COc1cccc(C(C(N)=O)N2CCN(c3ccc(-c4cn[nH]c4)cc3)C2=O)c1` (single isomer, unassigned) [Example 295, 2-(3-(4-(1H-pyrazol-4-yl)phenyl)-2-oxoimidazolidin-1-yl)-2-(3-methoxyphenyl)acetamide] it was 20.1 to 200 nM.
`COc1cccc(C(C)n2ccn(-c3ccc(-c4cn[nH]c4)cc3)c2=O)c1` (single isomer, unassigned) [Example 339, 1-(4-(1H-pyrazol-4-yl)phenyl)-3-(1-(3-methoxyphenyl)ethyl)-1H-imidazol-2(3H)-one] came in with a concentration for half-maximal inhibition (IC50) of less than 2 nM.
In the case of `CCc1cc(N2CCN(Cc3cccc(OC)c3)C2=O)ncc1-c1cn[nH]c1` [Example 190, 1-(4-ethyl-5-(1H-pyrazol-4-yl)pyridin-2-yl)-3-(3-methoxy-benzyl) imidazolidin-2-one] it was 200 to 2000 nM; in that of `COc1cccc(Cn2ccn(-c3ccc(-c4ccnc5[nH]ccc45)cc3)c2=O)c1` [Example 322, 1-(4-(1H-pyrrolo[2,3-b]pyridin-4-yl)phenyl)-3-(3-methoxybenzyl)-1H-imidazol-2(3H)-one], 2.1 to 20 nM; in that of `CCc1nc(N2CCN(C(C)c3cccc(OCC4CC4)c3)C2=O)ccc1-c1cn[nH]c1` (single isomer, unassigned) [Example 265, 1-(1-(3-(cyclopropylmethoxy)phenyl)ethyl)-3-(6-ethyl-5-(1H-pyrazol-4-yl)pyridin-2-yl)imidazolidin-2-one], 20.1 to 200 nM.
As to `COc1cccc(CN2CCN(c3ccc(-c4cn[nH]c4)c(C#N)c3)C2=O)c1` [Example 277, 5-(3-(3-methoxybenzyl)-2-oxoimidazolidin-1-yl)-2-(1H-pyrazol-4-yl)benzonitrile], the IC50 was 200 to 2000 nM.
Next, `COc1cc(CN2C(=O)N(c3ccc(-c4cn[nH]c4)cc3)C[C@H]2CO)ccc1F` (single isomer, unassigned) [Example 131]: 2.1 to 20 nM; `CCc1nc(-n2ccn(Cc3cc(F)cc(OC)c3)c2=O)ccc1-c1cn[nH]c1` [Example 172, 1-(6-ethyl-5-(1H-pyrazol-4-yl)pyridin-2-yl)-3-(3-fluoro-5-methoxy-benzyl)-1H-imidazol-2(3H)-one]: 2.1 to 20 nM; `COc1cccc(CN2CCN(c3ccc(-c4cn[nH]c4)cc3OC)C2=O)c1` [Example 10, 1-(2-Methoxy-4-(1H-pyrazol-4-yl)phenyl)-3-(3-methoxybenzyl)imidazolidin-2-one]: 2.1 to 20 nM.
Next, `COc1cc(-c2cn[nH]c2)ccc1N1CCN(Cc2cccc(F)c2)C1=O` [Example 9, 1-(3-Fluorobenzyl)-3-(2-methoxy-4-(1H-pyrazol-4-yl)phenyl)imidazolidin-2-one]: 20.1 to 200 nM; `COc1cccc(CN2CCN(c3ccc(-c4cn[nH]c4)c(F)c3)C2=O)c1F` [Example 433, 1-(2-fluoro-3-methoxybenzyl)-3-(3-fluoro-4-(1H-pyrazol-4-yl)phenyl)imidazolidin-2-one]: 20.1 to 200 nM.
Compound `COc1cccc(C(CO)n2ccn(-c3ccc(-c4cn[nH]c4)c(OC)c3)c2=O)c1` (single isomer, unassigned) [Example 360, 1-(2-hydroxy-1-(3-methoxyphenyl)ethyl)-3-(3-methoxy-4-(1H-pyrazol-4-yl)phenyl)-1H-imidazol-2(3H)-one] yielded an IC50 of 200 to 2000 nM.
